# Assay results from ChEMBL document CHEMBL1142642, “Hermitamides A and B, toxic malyngamide-type natural products from the marine cyanobacterium Lyngbya majuscula” (J Nat Prod, 2000).
# How the values were obtained:
# [1] = Cytotoxicity against mouse Neuro2a cells after 24 hrs by MTT assay; type: cell-based; conditions: N2a
# Biomphalaria glabrata = experiment: Molluscicidal activity against Biomphalaria glabrata at 10 ppm; type: organism-based; conditions: in vivo
# [2] = Toxicity in Artemia salina; type: organism-based; conditions: in vivo, read-out: LD50 (the source's name)
# [3] = Ichthyotoxicity to gold fish; type: organism-based; conditions: carassius auratus, in vivo; read-out: LD50 (the source's name)
SMILES,IC50 [1] [µM],Activity (Biomphalaria glabrata),LC50 [2] [µM],LC50 [3] [µM]
CCCCCCC[C@@H](C/C=C/CCC(=O)NCCc1ccccc1)OC [HERMITAMIDE A],2.2,Not Active,5,19
CCCCCCC[C@@H](C/C=C/CCC(=O)NCCc1c[nH]c2ccccc12)OC [HERMITAMIDE B],5.5,Not Active,18,25
CCCCCCC[C@@H](C/C=C/CCC(=O)N(C)C/C(=C/Cl)[C@]12O[C@H]1CC=C(C)C2=O)OC [MALYNGAMIDE N],12,,,
CCCCCCC[C@@H](C/C=C/CCC(=O)N(C)C/C(=C/Cl)c1cccc(C)c1O)OC [MALYNGAMIDE M],> 20,,,
